One test has as its system CaMKIIIβ(h). In words: Kinase profiling of R428. It is filed as biochemical, human. The note with it: 100 μM ATP, lower number = more robust inhibition. On the procedure:
(§1) The efficiency of the AXL inhibitor R428 for targeting different kinases was assessed by Kinase Profiling Services using 100 μM ATP concentration (EMD Millipore). R428 was tested at 1 and 10 μM. Table IV lists the kinases profiled along with the efficiency in targeting the kinases with a lower number indicating a more robust inhibition of a particular kinase.

Another test deals with IKKβ(h) (Homo sapiens, UniProt O14920). The test can be described thus: Kinase profiling of R428. It is filed as biochemical. The conditions noted are these: 100 μM ATP, lower number = more robust inhibition. As to the method: as §1
IKKβ(h), sequence (O14920 whole entry): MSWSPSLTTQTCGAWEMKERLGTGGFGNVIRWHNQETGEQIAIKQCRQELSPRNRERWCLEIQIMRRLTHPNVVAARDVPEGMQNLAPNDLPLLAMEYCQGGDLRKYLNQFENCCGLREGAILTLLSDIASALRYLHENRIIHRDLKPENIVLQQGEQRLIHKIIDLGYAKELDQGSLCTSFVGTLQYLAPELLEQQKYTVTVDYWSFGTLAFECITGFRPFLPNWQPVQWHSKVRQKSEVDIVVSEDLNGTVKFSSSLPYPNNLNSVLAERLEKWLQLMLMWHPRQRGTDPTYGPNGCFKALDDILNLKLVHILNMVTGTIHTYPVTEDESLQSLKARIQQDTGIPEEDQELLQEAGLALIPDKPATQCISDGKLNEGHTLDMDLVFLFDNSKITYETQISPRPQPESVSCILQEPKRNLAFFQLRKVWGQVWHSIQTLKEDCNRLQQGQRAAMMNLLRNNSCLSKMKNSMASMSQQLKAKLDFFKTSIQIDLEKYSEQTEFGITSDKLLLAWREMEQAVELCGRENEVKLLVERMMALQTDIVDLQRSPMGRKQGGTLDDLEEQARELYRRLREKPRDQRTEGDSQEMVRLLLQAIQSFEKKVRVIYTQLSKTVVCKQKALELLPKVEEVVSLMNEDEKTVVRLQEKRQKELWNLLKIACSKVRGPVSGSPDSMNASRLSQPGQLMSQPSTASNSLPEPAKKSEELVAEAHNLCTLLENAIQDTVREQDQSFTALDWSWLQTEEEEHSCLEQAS
Another test deals with IGF-1R(h) (Homo sapiens, UniProt P08069). In words: Kinase profiling of R428. In kind it is biochemical. The conditions noted are these: 100 μM ATP, lower number = more robust inhibition. As to the method:
as §1

The next test concerns the target T1, Aurora-A(h) (Homo sapiens, UniProt O14965).
T1 sequence (O14965 1-403): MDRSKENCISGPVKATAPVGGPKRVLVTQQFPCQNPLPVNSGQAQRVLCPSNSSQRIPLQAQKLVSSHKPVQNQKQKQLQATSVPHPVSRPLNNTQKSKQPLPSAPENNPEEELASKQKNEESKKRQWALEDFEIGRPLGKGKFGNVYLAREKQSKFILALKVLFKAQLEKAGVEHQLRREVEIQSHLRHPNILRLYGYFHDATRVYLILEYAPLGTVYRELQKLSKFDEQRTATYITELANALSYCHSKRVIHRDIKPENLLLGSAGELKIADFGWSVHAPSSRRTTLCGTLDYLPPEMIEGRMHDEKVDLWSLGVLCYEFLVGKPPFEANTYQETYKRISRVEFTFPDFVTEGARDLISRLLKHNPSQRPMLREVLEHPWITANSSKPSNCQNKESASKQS
In words: Kinase profiling of R428. It is filed as biochemical. The conditions noted are these: for efficiency in targeting Aurora-A(h): 100 μM ATP, lower number = more robust inhibition. As to the method: as §1

The test system of a further test is UCN3 expression. In words: Stage 7 treatment, real-time PCR of UCN3 (Example 6). In kind it is cell-based, human. The note with it: Stage 7, day 7, 2 μM in Stage 7 medium, H1-derived cells, mRNA. As to the method:
(§2) Cells of the human embryonic stem cell line H1 (WA01) were seeded as single cells at 1×10^5 cells/cm^2 on MATRIGEL™ (1:30 dilution) coated dishes in E8 media. At about 70 to 80% confluency, the cultures were washed in 1× incomplete DPBS followed by incubation with 1× TrypLET™ Express Enzyme for 3 to 5 minutes at 37° C. The released cells were rinsed with E8 and spun at 1000 rpm for 5 minutes. The resulting cell pellet was resuspended in E8 supplemented with 10 μM Y-27632 and the single cell suspension was seeded at approximately 1.3 to 1.5×10^5 cells/cm^2. The cultures were fed every day with E8 medium and differentiation, according to the following protocol, was initiated 48 hrs. following seeding resulting in an about 90% starting confluency.
Stage 6 cells were cultured for seven days in BLAR medium supplemented with a 1:100 dilution of ITS-X; 20 mM glucose (final); 1.5 g/L sodium bicarbonate; 2% FAF-BSA; 10 μg/ml of heparin, 10 μM ZnSO4, 1 μM T3 as 3,3′, 5-triiodo-L-thyronine sodium salt, 10 μM ALK5 inhibitor II, 1 mM N-acetyl cysteine. […]
At Stage 7, day 7, mRNA was collected and expression of MAFA, UCN3, PDX1, NKX6.1, insulin and G6PC2 evaluated as compared to undifferentiated human stem cells. […]

For another test, the system named is MAFA expression. The test can be described thus: Stage 7 treatment, real-time PCR of MAFA (Example 7). In kind it is cell-based, human. The conditions noted are these: Stage 7, day 14, 2 μM R428 or 2-5 μM inhibitor substituted for R428, H1-derived cells, mRNA. As to the method: as §2, with “TrypLE™” for “TrypLET™”
Stage 6 cells were cultured for fourteen days in BLAR medium supplemented with a 1:100 dilution of ITS-X; 20 mM glucose (final); 1.5 g/L sodium bicarbonate; 2% FAF-BSA; 10 μg/ml of heparin, 10 μM ZnSO4, 1 μM T3 as 3,3′, 5-triiodo-L-thyronine sodium salt, 10 μM ALK5 inhibitor II, 1 mM N-acetyl cysteine. Some cultures also included one of 2 μM R428, 2-5 μM RSK inhibitor II (2-(3,5-Difluoro-4-hydroxy-anilino)-8-isopentyl-5,7-dimethyl-7H-pteridin-6-one) (EMD Millipore; Catalog No, 559286-5MG), 2-5 μM aurora kinase inhibitor II (EMD Millipore, or a combination of 2-5 μM RSK inhibitor II and 2-5 μM aurora kinase II inhibitor.
At Stage 7, day 14, mRNA was collected and compared to undifferentiated human stem cells.

IGF-1R(h), sequence (P08069 31-1367): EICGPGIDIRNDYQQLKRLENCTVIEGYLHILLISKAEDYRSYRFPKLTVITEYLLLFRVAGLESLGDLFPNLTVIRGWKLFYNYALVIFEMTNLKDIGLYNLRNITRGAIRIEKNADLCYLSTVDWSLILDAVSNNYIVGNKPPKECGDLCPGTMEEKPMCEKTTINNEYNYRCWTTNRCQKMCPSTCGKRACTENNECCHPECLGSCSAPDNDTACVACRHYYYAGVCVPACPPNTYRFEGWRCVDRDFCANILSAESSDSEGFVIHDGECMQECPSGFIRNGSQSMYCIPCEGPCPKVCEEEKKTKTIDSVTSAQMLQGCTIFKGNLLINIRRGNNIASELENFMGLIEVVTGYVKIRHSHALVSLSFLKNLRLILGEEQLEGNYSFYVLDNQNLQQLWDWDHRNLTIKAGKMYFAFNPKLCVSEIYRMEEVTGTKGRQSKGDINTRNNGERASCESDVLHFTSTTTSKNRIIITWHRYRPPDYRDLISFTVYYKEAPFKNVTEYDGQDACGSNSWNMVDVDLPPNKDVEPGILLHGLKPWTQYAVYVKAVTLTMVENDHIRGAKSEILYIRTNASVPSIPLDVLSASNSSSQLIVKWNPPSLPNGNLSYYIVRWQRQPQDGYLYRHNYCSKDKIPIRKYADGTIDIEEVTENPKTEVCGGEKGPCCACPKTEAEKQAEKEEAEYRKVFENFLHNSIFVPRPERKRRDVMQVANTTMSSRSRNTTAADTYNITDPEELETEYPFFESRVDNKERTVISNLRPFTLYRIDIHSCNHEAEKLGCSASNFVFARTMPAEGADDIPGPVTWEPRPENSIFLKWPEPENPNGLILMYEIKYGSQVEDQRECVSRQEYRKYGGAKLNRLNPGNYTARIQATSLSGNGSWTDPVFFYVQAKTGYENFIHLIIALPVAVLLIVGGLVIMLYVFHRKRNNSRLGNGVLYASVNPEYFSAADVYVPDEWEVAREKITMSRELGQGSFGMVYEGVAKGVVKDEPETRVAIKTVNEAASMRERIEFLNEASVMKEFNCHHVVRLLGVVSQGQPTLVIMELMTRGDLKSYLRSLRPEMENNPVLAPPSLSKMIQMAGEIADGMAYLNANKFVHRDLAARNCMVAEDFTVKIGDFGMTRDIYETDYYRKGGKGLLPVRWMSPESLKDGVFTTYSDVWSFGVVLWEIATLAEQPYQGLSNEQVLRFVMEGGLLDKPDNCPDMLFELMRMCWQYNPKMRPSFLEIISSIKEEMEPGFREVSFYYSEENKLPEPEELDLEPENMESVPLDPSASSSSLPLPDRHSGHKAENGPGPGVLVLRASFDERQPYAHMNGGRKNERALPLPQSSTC

Consider `Nc1nc(Nc2ccc3c(c2)CC[C@@H](N2CCCC2)CC3)nn1-c1cc2c(nn1)-c1ccccc1CCC2` [R428, 1H-1,2,4-Triazole-3,5-diamine, 1-(6,7-dihydro-5H-benzo[6,7]cyclohepta[1,2-c]pyridazin-3-yl) N3-[(7S)-6,7,8,9-tetrahydro-7-(1-pyrrolidinyl)-5H-benzocyclohepten-2-yl]-], for which the “efficiency in targeting CaMKIIIβ(h)” value with CaMKIIIβ(h) (R428 @ 1 μM) came out at 76; with CaMKIIIβ(h) (R428 @ 10 μM), 5. Further, the results for the “efficiency in targeting IKKβ(h)” value at IKKβ(h) (R428 @ 1 μM) and on IKKβ(h) (R428 @ 10 μM) were 86 and 53, respectively. Also, the “efficiency in targeting IGF-1R(h)” value at IGF-1R(h) (R428 @ 1 μM) came to 93; at IGF-1R(h) (R428 @ 10 μM) it was 58. Besides, the “efficiency in targeting Aurora-A(h)” value at Aurora-A(h) (R428 @ 1 μM) was 20; at Aurora-A(h) (R428 @ 10 μM) it was 3. For the same molecule, at Aurora-A(h) (at 1 and 10 μM), the “inhibition of AuroraA (in words)” value was “potently inhibits”. Besides, the UCN3 expression result in the test on UCN3 expression is reported as “reduces other beta cell maturation markers”. Also, the MAFA expression entry with MAFA expression is reported as “removal of R428 resulted in a significant decrease in MAFA expression”.
